This is an account of results in PMC6792352, “Limited Chemical Structural Diversity Found to Modulate Thyroid Hormone Receptor in the Tox21 Chemical Library” (Environmental Health Perspectives, 2019).

The series is described as follows: in vitro. As to conditions: rat, gh3-tre-luc cells.

Each structure is given as a SMILES string. Where a name gives a salt, the structure may show the parent alone.

`C[C@]12CC[C@H](O)C[C@H]1CC[C@@H]1[C@@H]2CC[C@]2(C)[C@@H](c3ccc(=O)oc3)C[C@H]3O[C@]132` [Bufogenin]: the CC50 at 24 h (AC50 (uM) modified / 1000, Tox21_110001=Tox21_112671, viability, 1 nM T3 present, 24 h) was more than 50 µM.

For the compound `C[Si](O[Si](C)(C)C)O[Si](C)(C)C`, the CC50 at 24 h (AC50 (uM) modified / 1000) is more than 90 µM.

Regarding `Cc1ccccc1-n1c(CF)nc2ccc(N)cc2c1=O` [Afloqualone], where the note is “AC50 (uM) modified / 1000, Tox21_110001=Tox21_112447, viability, 1 nM T3 present, 24 h”, the CC50 at 24 h was more than 50 µM.

In turn, `CC[C@@]1(c2ccccc2)NC(=O)N(C)C1=O` [(S)-Mephenytoin] gave a CC50 at 24 h (AC50 (uM) modified / 1000) of more than 50 µM.

As for `Cc1cccc(C(=O)O)c1O` [2-Hydroxy-3-methylbenzoic acid], the CC50 at 24 h (AC50 (uM) modified / 1000) is more than 50 µM.

As for `CCCCCCCCCC[N+](C)(C)[O-]` [N,N-Dimethyldecylamine oxide], the CC50 at 24 h (AC50 (uM) modified / 1000) was more than 90 µM.

With `CC1=CC(=O)CC(C)(C)C1=O` [2,6,6-Trimethyl-2-cyclohexene-1,4-dione], the CC50 at 24 h (AC50 (uM) modified / 1000) is more than 90 µM.

`O=P(O)(O)C(Cl)(Cl)P(=O)(O)O` [Clodronic acid, disodium salt] came in with a CC50 at 24 h (AC50 (uM) modified / 1000) of more than 50 µM.

For `CC/C=C\CCOC(=O)C(C)C` [(3Z)-Hex-3-en-1-yl 2-methylpropanoate], the 50% cytotoxic concentration (CC50) at 24 h (AC50 (uM) modified / 1000) was more than 90 µM.

`OC1(c2ccc(Cl)c(C(F)(F)F)c2)CCN(CCCC(c2ccc(F)cc2)c2ccc(F)cc2)CC1` [Penfluridol] showed a half-maximal cytotoxic concentration (CC50) at 24 h (AC50 (uM) modified / 1000) of 3.98 µM.

As for `Nc1ccccc1O` [2-Aminophenol], for the setting “AC50 (uM) modified / 1000”, the half-maximal cytotoxic concentration (CC50) at 24 h came to 40.6 µM.

With `C=CCC1=C(C)C(OC(=O)[C@@H]2[C@@H](C=C(C)C)C2(C)C)CC1=O` (some centres unmarked) [Allethrin], under “AC50 (uM) modified / 1000”, half-maximal cytotoxicity (CC50 at 24 h) was put at 53.2 µM.

For the compound `O=NN1CCCCCCC1` [Nitrosoheptamethyleneimine], the half-maximal cytotoxic concentration (CC50) at 24 h (AC50 (uM) modified / 1000) is more than 90 µM.

In the case of `S=P(N1CC1)(N1CC1)N1CC1` [Thiotepa], the CC50 at 24 h (AC50 (uM) modified / 1000) is more than 100 µM.

In turn, `CCN1CCN(C(=O)N[C@@H](C(=O)N[C@@H]2C(=O)N3C(C(=O)O)=C(CSc4nnnn4C)CS[C@H]23)c2ccc(O)cc2)C(=O)C1=O` [Cefoperazone sodium] came in with a CC50 at 24 h (AC50 (uM) modified / 1000) of more than 50 µM.

The compound `c1ccc2[nH]ccc2c1` [Indole] yielded a CC50 at 24 h (AC50 (uM) modified / 1000) of more than 90 µM.

On to `CC(=O)OCC(=O)[C@@]1(O)[C@H](C)C[C@H]2[C@@H]3C[C@H](F)C4=CC(=O)C=C[C@]4(C)[C@H]3[C@@H](O)C[C@@]21C` [Paramethasone acetate], for which the CC50 at 24 h (AC50 (uM) modified / 1000) is more than 50 µM.

`CC(=NO)C(C)=NO` [Dimethylglyoxime] showed a CC50 at 24 h (AC50 (uM) modified / 1000) of more than 90 µM.

`COC(=O)C1CC(=O)C(C(=O)OC)CC1=O` (centres unmarked) [Dimethyl succinylsuccinate]: where the note is “AC50 (uM) modified / 1000”, the 50% cytotoxic concentration (CC50) at 24 h was more than 5 µM.

Consider `CCCCN(CCCCO)N=O` [Butyl-N-(4-hydroxybutyl)nitrosamine], for which, for the setting “AC50 (uM) modified / 1000, Tox21_110001=Tox21_301263, viability, 1 nM T3 present, 24 h”, the half-maximal cytotoxic concentration (CC50) at 24 h was more than 90 µM.

Regarding `O=C(CCCN1CCN(c2ccccn2)CC1)c1ccc(F)cc1` [Azaperone], the CC50 at 24 h (AC50 (uM) modified / 1000) is more than 50 µM.

Where the note is “AC50 (uM) modified / 1000”, `C[N+](C)(C)CCOC(=O)C(O)(c1ccccc1)c1ccccc1` [Metocinium iodide] showed a 50% cytotoxic concentration (CC50) at 24 h of more than 50 µM.

As for `OC(CCCN1CCCCC1)(c1ccccc1)c1ccccc1` [Diphenidol], the cytotoxic concentration (CC50) at 24 h (AC50 (uM) modified / 1000) was more than 50 µM.

As for `On1nnc2ccccc21` [1-Hydroxybenzotriazole], for the setting “AC50 (uM) modified / 1000”, the 50% cytotoxic concentration (CC50) at 24 h is more than 90 µM.

Turning to `C[C@]12CC[C@H]3[C@@H](CC[C@@]45O[C@@H]4C(O)=C(C#N)C[C@]35C)[C@@H]1CC[C@@H]2O` [Trilostane], under “AC50 (uM) modified / 1000”, the half-maximal cytotoxic concentration (CC50) at 24 h was more than 90 µM.

On to `CCC1=C(C)CN(C(=O)NCCc2ccc(S(=O)(=O)NC(=O)N[C@H]3CC[C@H](C)CC3)cc2)C1=O` [Glimepiride], for which the CC50 at 24 h (AC50 (uM) modified / 1000) was more than 50 µM.

In turn, `CCCCC(CC)COC(=O)c1ccccc1O` (centres unmarked) [2-Ethylhexyl salicylate] showed a 50% cytotoxic concentration (CC50) at 24 h (AC50 (uM) modified / 1000) of more than 50 µM.

Consider `Nc1ccccc1` [Anilinium nitrate], for which the CC50 at 24 h (AC50 (uM) modified / 1000) is more than 50 µM.

As to `CC(C)Cc1ccc([C@@H](C)C(=O)NS(C)(=O)=O)cc1` [Reparixin], the 50% cytotoxic concentration (CC50) at 24 h (AC50 (uM) modified / 1000) was more than 50 µM.

Take `C=CCc1ccc(OC(=O)Cc2ccccc2)c(OC)c1` [Eugenyl phenylacetate]: the half-maximal cytotoxic concentration (CC50) at 24 h (AC50 (uM) modified / 1000, Tox21_110001=Tox21_301203, viability, 1 nM T3 present, 24 h) is more than 90 µM.

Under “AC50 (uM) modified / 1000”, `CCC(C)(C)C(=O)O` [2,2-Dimethylbutanoic acid] showed a 50% cytotoxic concentration (CC50) at 24 h of more than 90 µM.

The compound `CC(=O)/N=c1/sc(S(N)(=O)=O)nn1C` [Methazolamide] had a CC50 at 24 h (AC50 (uM) modified / 1000) of more than 20 µM.

Broadly, the CC50 is the concentration at which the toxic effect on the cells reaches its halfway point.
